Results published in US4728638A, “Somatostatine derivatives” (Sandoz Ltd., priority 1985, dated 1988).

System: GH-secretion
Assay: GH-secretion inhibiting test: depression of serum GH-levels in the rat (radio-immuno-assay)
Assay type: in vivo
Details: male rats, s.c.
Experimental: This test is carried out employing male rats. The test-substance is administered at varying, logarithmically staggered doses employing at least 5 rats per dose. 1, 6 and 18 hours after the administration of the test substance blood is taken. The determination of the serum GH-level is effected by radio-immuno-assay. The compounds of formula I are active in this test when administered at a dosage in the range of from 0.01 to 50 μg/kg s.c.

C[C@H](N)C(=O)NCC(=O)N[C@H]1CSSC[C@@H](C(=O)O)NC(=O)[C@H](CO)NC(=O)[C@H]([C@@H](C)O)NC(=O)[C@H](Cc2ccccc2)NC(=O)[C@H]([C@@H](C)O)NC(=O)[C@H](CCCCN)NC(=O)[C@H](Cc2c[nH]c3ccccc23)NC(=O)[C@H](Cc2ccccc2)NC(=O)[C@H](Cc2ccccc2)NC(=O)[C@H](CC(N)=O)NC(=O)[C@H](CCCCN)NC1=O [natural somatostatine, somatostatine]
ID50 in the GH-secretion inhibiting test after 1 hour (blood taken 1 hour after administration): 0.95 mg/kg | ID50 in the GH-secretion inhibiting test after 6 hours (blood taken 6 hours after administration): extremely high and therefore not determinable
